Results as given in patent US10206907B2, “Compounds useful for the treatment of degenerative and inflammatory diseases” (GALAPAGOS NV, priority 2008, dated 2019).

Tests used:
[1] = Microsomal stability, rat liver microsomes; format: in vitro ADME; conditions: percentage of compound remaining after 60 minutes, 3 μM compound
Outline: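 Percent parent remaining after 60 min was determined by LCMS against a time-zero sample quenched before microsome addition. Incubations ran at 37°C with liver microsomes and a G6PDH-based NADPH-regenerating cofactor mix. Quench was MeOH or ACN (1:1).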

[2] = tested on: Collagen Induced Arthritis (CIA); experiment: Rat CIA model; format: in vivo; conditions: therapeutic dosing day 16 to day 30, p.o., statistical significance in several of the readouts
Procedure: Completed Freund's adjuvant (CFA) and incomplete Freund's adjuvant (IFA) were purchased from Difco. Bovine collagen type II (CII), lipopolysaccharide (LPS), and Enbrel were obtained from Chondrex (Isle d'Abeau, France); Sigma (P4252, L'Isle d'Abeau, France), Whyett (25 mg injectable syringe, France) Acros Organics (Palo Alto, Calif.), respectively. All other reagents used were of reagent grade and all solvents were of analytical grade.
Dark Agouti rats (male, 7-8 weeks old) were obtained from Harlan Laboratories (Maison-Alfort, France). Rats were kept on a 12 hours light/dark cycle (0700-1900). The temperature was maintained at 22° C., and food and water were provided ad libitum.
One day before the experiment, CII solution (2 mg/mL) was prepared with 0.05 M acetic acid and stored at 4° C. Just before the immunization, equal volumes of adjuvant (IFA) and CII were mixed by a homogenizer in a pre-cooled glass bottle in an ice water bath. Extra adjuvant and prolonged homogenization might be required if an emulsion is not formed. 0.2 mL of the emulsion was injected intradermally at the base of the tail of each rat on day 1, a second booster intradermal injection (CII solution at 2 mg/mL in CFA 0.1 mL saline) was performed on day 9. This immunization method was modified from published methods (Sims N A et al., (2004) Targeting osteoclasts with zoledronic acid prevents bone destruction in collagen-induced arthritis, Arthritis Rheum. 50 2338-2346; Jou et al., 2005).
The therapeutic effects of the test compounds were tested in the rat CIA model. Rats were randomly divided into equal groups and each group contained 10 rats. All rats were immunized on day 1 and boosted on day 9. Therapeutic dosing lasted from day 16 to day 30. The negative control group was treated with vehicle (MC 0.5%) and the positive control group with Enbrel (10 mg/kg, 3× week, s.c.). A compound of interest was typically tested at 3 doses, e.g. 3, 10, 30 mg/kg, p.o.
Arthritis was scored according the method of Khachigian 2006, Lin et al 2007 and Nishida et al. 2004. The swelling of each of the four paws was ranked with the arthritic score as follows: 0-no symptoms; 1-mild, but definite redness and swelling of one type of joint such as the ankle or wrist, or apparent redness and swelling limited to individual digits, regardless of the number of affected digits; 2-moderate redness and swelling of two or more types of joints; 3-severe redness and swelling of the entire paw including digits; 4-maximally inflamed limb with involvement of multiple joints (maximum cumulative clinical arthritis score 16 per animal) (Nishida et al., 2004).
Clinically, body weight loss is associated with arthritis (Shelton et al., 2005; Argiles et al., 1998; Rall, 2004; Walsmith et al., 2004). […] The change in body weight (%) after onset of arthritis was calculated as follows: […]
X-ray photos were taken of the hind paws of each individual animal. A random blind identity number was assigned to each of the photos, and the severity of bone erosion was ranked by two independent scorers with the radiological Larsen's score system as follows: 0-normal with intact bony outlines and normal joint space; 1—slight abnormality with any one or two of the exterior metatarsal bones showing slight bone erosion; 2—definite early abnormality with any three to five of the exterior metatarsal bones showing bone erosion; 3—medium destructive abnormality with all the exterior metatarsal bones as well as any one or two of the interior metatarsal bones showing definite bone erosions; 4—severe destructive abnormality with all the metatarsal bones showing definite bone erosion and at least one of the inner metatarsal joints completely eroded leaving some bony joint outlines partly preserved; 5—mutilating abnormality without bony outlines. This scoring system is a modification from Salvcmini et al., 2001; Bush et al., 2002; Sims et al., 2004; Jou et al., 2005. […]

[3] = tested on: JAK-STAT signalling in HeLa cells; experiment: JAK-STAT signalling assay (OSM-triggered pSTAT1(2)-luciferase reporter in HeLa cells); format: cell-based; conditions: Homo sapiens; HeLa cells, OSM-triggered pSTAT1(2)-luciferase reporter; read-out: STAT signalling EC50
Outline: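 Read-out is oncostatin M–driven pSTAT1(2)-luciferase activity, corrected by co-transfected LacZ β-galactosidase, in transiently transfected HeLa cells cultured overnight at 37 °C, 10% CO2. Inhibition percentages against positive and negative controls were plotted across doses to derive EC50.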

Microsomal Stability Rat (%) [1]	EC50 [3]	SMILES	efficacy in all readouts of the rat CIA study [2]
**** (**** 76-100)	101 to 500 nM	CC1CN(C(=O)c2ccc(-c3cccc4nc(NC(=O)C5CC5)nn34)cc2)CC(C)O1 (stereo not drawn) [Compound 215, Cyclopropanecarboxylic acid {5-[4-(2,6-dimethyl-morpholine-4-carbonyl)-phenyl]-[1,2,4]triazolo[1,5-a]pyridin-2-yl}-amide]	efficacious in all readouts
**** (**** 76-100)	1 to 100 nM	CC1(C)CN(C(=O)c2ccc(-c3cccc4nc(NC(=O)C5CC5)nn34)cc2)C1 [Compound 330, Cyclopropanecarboxylic acid (5-[4-(3,3-dimethyl-azetidine-1-carbonyl)-phenyl]-[1,2,4]triazolo[1,5-a]pyridin-2-yl}-amide]	efficacious in all readouts

Continued, compound first:

SMILES	Microsomal Stability Rat (%) [1]	EC50 [3]	efficacy in all readouts of the rat CIA study [2]
O=C(Nc1nc2cccc(-c3ccc(CN4CCOCC4)cc3)n2n1)C1CC1 [Compound 18, N-(5-(4-(morpholinomethyl)phenyl)-[1,2,4]triazolo[1,5-a]pyridin-2-yl)cyclopropanecarboxamide]	** (** 26-50)	> 1000 nM	efficacious in all readouts
CC1CCCN(C(=O)c2ccc(-c3cccc4nc(NC(=O)C5CC5)nn34)cc2)C1 (stereo not drawn) [Compound 145, N-(5-(4-(3-methylpiperidine-1-carbonyl)phenyl)-[1,2,4]triazolo[1,5-a]pyridin-2-yl)cyclopropanecarboxamide]	* (* 0-25)	501 to 1000 nM	efficacious in all readouts
N#Cc1ccc(COc2ccc(-c3cccc4nc(NC(=O)C5CC5)nn34)cc2)cn1 [Compound 176, N-(5-(4-((6-cyanopyridin-3-yl)methoxy)phenyl)-[1,2,4]triazolo[1,5-a]pyridin-2-yl)cyclopropanecarboxamide]	**** (**** 76-100)	101 to 500 nM	efficacious in all readouts
